# Experimental data reported in BindingDB's records for patent US11912703 (Bristol Myers Squibb, 2024).
# Tests used:
# Experiment in all cases: TLR7/8/9 Inhibition Reporter Assays
# Toll-like receptor 8 = target: T1, Toll-like receptor 8 (Homo sapiens, UniProt Q9NR97)
# T1 sequence (Q9NR97 whole entry): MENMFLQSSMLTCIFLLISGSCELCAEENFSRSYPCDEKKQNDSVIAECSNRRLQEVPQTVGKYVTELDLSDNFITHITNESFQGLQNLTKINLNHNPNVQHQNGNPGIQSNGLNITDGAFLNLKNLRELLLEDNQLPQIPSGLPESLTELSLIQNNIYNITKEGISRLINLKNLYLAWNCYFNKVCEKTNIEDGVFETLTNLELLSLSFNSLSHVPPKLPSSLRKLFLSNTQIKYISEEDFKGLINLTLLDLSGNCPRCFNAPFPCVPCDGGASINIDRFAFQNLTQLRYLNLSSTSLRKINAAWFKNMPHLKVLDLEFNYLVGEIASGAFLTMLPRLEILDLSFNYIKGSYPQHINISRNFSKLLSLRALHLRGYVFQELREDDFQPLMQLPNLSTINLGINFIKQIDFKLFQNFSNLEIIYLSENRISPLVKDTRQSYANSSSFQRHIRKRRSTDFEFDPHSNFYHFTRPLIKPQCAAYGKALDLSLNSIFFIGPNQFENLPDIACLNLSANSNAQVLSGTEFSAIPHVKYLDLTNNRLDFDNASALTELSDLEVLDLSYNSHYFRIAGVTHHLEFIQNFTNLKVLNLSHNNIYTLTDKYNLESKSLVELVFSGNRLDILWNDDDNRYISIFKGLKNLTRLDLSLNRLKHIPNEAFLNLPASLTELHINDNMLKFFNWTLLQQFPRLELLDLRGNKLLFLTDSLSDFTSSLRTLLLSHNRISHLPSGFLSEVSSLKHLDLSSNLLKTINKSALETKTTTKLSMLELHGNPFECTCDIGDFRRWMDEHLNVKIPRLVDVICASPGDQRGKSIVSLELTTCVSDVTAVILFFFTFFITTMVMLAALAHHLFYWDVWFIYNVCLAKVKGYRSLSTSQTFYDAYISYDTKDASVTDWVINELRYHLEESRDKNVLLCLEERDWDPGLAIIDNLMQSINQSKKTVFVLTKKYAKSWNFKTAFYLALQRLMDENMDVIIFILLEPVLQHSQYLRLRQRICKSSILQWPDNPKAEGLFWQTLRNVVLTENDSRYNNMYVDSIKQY
# Description: (§1) HEK-Blue-cells (Invivogen) overexpressing human TLR7, TLR8 or TLR9 receptors were used for screening inhibitors of these receptors using an inducible SEAP (secreted embryonic alkaline phosphatase) reporter gene under the control of the IFN-β minimal promoter fused to five NF-κB and AP-1-binding sites. Briefly, cells are seeded into Greiner 384 well plates (15000 cells per well for TLR7, 20,000 for TLR8 and 25,000 for TLR9) and then treated with test compounds in DMSO to yield a final dose response concentration range of 0.05 nM-50 μM. […] After a 22 hour incubation at 37 C., 500 CO2, SEAP levels are determined with the addition of HEK-Blue Detection reagent (Invivogen), a cell culture medium that allows for detection of SEAP, according to manufacturer's specifications. The percent inhibition is determined as the 00 reduction in the HEK-Blue signal present in wells treated with agonist plus DMSO alone compared to wells treated with a known inhibitor.
# Toll-like receptor 7 = target: T2, Toll-like receptor 7 (Homo sapiens, UniProt Q9NYK1)
# T2 sequence (Q9NYK1 whole entry): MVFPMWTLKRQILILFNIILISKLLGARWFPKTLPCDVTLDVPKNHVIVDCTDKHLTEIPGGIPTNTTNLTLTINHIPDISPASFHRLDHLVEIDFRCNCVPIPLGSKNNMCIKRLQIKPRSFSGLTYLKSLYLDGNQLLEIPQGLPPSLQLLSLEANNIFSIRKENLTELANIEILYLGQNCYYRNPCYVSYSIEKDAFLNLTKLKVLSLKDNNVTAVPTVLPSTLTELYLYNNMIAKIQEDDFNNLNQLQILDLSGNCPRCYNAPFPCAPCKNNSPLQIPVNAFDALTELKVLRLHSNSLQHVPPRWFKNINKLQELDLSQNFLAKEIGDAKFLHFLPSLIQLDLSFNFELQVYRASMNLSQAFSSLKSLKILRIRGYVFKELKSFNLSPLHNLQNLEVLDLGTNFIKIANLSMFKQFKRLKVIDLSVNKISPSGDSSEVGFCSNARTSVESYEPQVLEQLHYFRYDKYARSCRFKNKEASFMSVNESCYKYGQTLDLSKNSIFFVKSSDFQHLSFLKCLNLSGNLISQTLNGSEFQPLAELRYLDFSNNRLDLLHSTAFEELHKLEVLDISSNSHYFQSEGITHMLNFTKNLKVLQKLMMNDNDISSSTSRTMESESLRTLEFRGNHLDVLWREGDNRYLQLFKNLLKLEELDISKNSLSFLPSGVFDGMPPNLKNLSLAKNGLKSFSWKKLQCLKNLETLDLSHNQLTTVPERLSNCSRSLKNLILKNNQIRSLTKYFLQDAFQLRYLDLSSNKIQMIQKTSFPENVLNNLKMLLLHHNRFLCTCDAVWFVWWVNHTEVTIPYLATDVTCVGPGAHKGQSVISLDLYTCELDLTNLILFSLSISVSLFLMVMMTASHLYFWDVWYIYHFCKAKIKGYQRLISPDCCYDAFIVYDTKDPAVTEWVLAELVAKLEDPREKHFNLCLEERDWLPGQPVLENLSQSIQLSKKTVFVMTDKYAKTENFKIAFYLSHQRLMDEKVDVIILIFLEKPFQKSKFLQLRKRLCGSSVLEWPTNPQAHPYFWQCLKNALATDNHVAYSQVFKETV
# Description: as §1
# Toll-like receptor 9 = target: T3, Toll-like receptor 9 (Homo sapiens, UniProt Q9NR96)
# T3 sequence (Q9NR96 whole entry): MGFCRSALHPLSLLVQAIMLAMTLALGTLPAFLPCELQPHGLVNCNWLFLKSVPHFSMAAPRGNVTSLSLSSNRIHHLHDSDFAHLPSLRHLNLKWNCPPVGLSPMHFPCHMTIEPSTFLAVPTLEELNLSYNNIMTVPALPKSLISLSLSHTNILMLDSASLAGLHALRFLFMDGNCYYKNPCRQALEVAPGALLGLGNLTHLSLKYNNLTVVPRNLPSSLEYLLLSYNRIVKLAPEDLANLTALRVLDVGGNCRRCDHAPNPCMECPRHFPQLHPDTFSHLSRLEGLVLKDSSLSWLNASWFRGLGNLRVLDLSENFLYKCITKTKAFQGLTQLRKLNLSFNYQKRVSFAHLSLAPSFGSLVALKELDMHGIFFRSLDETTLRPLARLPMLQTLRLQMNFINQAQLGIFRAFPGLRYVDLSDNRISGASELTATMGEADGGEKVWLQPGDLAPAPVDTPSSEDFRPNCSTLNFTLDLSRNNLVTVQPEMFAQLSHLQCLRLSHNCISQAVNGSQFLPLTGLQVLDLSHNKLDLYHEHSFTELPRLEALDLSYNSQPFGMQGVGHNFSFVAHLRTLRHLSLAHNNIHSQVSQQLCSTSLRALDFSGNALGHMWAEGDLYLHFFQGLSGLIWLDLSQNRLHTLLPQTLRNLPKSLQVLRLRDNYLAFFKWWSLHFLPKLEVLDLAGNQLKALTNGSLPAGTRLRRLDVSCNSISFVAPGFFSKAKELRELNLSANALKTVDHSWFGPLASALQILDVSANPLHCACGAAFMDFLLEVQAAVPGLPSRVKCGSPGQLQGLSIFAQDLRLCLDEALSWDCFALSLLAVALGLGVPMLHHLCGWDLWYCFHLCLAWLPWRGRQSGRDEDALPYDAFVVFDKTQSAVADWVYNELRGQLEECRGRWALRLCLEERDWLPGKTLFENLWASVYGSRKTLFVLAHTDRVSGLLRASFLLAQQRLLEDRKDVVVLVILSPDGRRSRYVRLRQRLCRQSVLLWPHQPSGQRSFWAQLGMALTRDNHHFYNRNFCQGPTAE
# Description: as §1
SMILES,IC50 (Toll-like receptor 8) [nM],IC50 (Toll-like receptor 7) [nM],IC50 (Toll-like receptor 9) [nM]
"Cc1c(-c2[nH]c3cnc(C4CCC(N5CC(CO)(CO)C5)CC4)c(F)c3c2C(C)C)cn2ncnc2c1C (configuration not stated) [US11912703, Example 266]",23,26,2030
"CNC(=O)CN1CCN(c2cc3c(C(C)C)c(-c4cc(OC)c5ncnn5c4)[nH]c3cn2)CC1 [US11912703, Example 288]",8.5,27,2870
"CNCC(=O)N1CCN(c2cc3c(C(C)C)c(-c4cc(OC)c5ncnn5c4)[nH]c3cn2)CC1 [US11912703, Example 289]",58,3.7,14000
"COc1cc(-c2[nH]c3cnc(N4CCN(C5COC5)CC4)cc3c2C(C)C)cn2ncnc12 [US11912703, Example 303]",12,19,> 50000
